Reference: US11236055B2 (Venenum Biodesign, LLC, priority 2016, dated 2022)

Tests used:
[1] = molecular target: T1, human TGR5 receptor (Homo sapiens, UniProt Q8TDU6); assay: Human TGR5 cAMP production assay; assay type: cell-based; conditions: human TGR5, luminescent cAMP assay; coded A-D; read-out: Human TGR5 Lum. cAMP Activity (EC50)
T1 construct: host or cells: CHO-K1 (hTGR5-CHO cells)
T1 sequence (Q8TDU6 1-330): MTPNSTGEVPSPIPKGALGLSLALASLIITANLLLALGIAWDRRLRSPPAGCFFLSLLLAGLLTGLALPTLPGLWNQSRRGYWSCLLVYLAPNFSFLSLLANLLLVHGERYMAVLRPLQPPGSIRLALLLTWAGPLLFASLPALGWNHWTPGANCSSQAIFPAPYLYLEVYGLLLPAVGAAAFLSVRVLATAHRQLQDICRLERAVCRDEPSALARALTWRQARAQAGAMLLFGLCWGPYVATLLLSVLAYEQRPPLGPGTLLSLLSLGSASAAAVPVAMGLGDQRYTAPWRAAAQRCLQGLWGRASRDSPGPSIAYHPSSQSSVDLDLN
How it was run: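 CHO-K1 cells stably expressing human TGR5, with IBMX and cAMP antibody, were exposed to half-log serially diluted compound for 1 h at room temperature. cAMP measured by enzyme-fragment complementation luminescence (XS+ kit) after overnight incubation; EC50 values reported.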

[2] = molecular target: T2, mouse TGR5 receptor (Mus musculus, UniProt Q80SS6); assay: Mouse TGR5 cAMP production assay (HTRF, Cisbio cAMP HiRange); assay type: cell-based; conditions: HEK293-EBNA cells overexpressing mouse TGR5, HTRF cAMP HiRange; coded A-D
T2 construct: expressed in transfected cells; host or cells: HEK293-EBNA (293 c18, ATCC CRL10852), Hygromycin B selection
T2 sequence (Q80SS6 1-329): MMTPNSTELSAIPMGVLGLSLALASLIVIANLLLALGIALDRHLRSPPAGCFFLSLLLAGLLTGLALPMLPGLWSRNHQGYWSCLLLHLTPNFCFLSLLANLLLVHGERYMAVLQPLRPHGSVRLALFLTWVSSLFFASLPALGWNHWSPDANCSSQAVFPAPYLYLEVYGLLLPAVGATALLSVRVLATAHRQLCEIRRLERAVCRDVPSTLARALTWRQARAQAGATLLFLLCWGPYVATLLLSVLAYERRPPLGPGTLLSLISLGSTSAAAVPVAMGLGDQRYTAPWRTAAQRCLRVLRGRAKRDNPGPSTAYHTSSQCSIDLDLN
How it was run: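 cAMP read by HTRF competition after 1 h room-temperature compound exposure of mouse TGR5-overexpressing HEK293-EBNA cells. Cells were suspended in serum-free DMEM containing 500 μM IBMX; compounds ran as 12-point half-log dilutions in duplicate; EC50 derived.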

Compound | EC50 [1] [nM] | EC50 [2] [nM]
CCc1cnccc1-c1cccc([C@H](C)N(CCCC(=O)NCCS(=O)(=O)NCC(=O)O)S(=O)(=O)c2cccc(Cl)c2C)c1 [Compound 21AT, (S) 2-(3-(4-(3-chloro-2-methyl-N-(1-(3-(3-ethylpyridin-4-yl)phenyl)ethyl)phenylsulfonamido)butanamido)ethylsulfonamido)acetic acid] | < 100 | < 100
Cc1cnccc1-c1cccc([C@H](C)N(CCCC(=O)NCCNS(=O)(=O)CC(=O)O)S(=O)(=O)c2cccc(Cl)c2C)c1 [Compound 26AA] | < 100 | < 100
Cc1cnccc1-c1cccc([C@H](C)N(CCCC(=O)NCCNS(=O)(=O)CCC(=O)O)S(=O)(=O)c2cccc(Cl)c2C)c1 [Compound 26AB] | < 100 | < 100
Cc1cnccc1-c1cccc([C@H](C)N(CCCCNC(=O)NCCS(=O)(=O)NCC(=O)O)S(=O)(=O)c2ccccc2C(F)(F)F)c1 [Compound 28AA, (S)-2-(3-(4-(N-(1-(3-(3-methylpyridin-4-yl)phenyl)ethyl)-2-(trifluoromethyl)phenylsulfonamido)butyl)ureido)ethanesulfonamido acetic acid] | < 100 | 100 to 999
Cc1cnccc1-c1cccc([C@H](C)N(CCCCNC(=O)NCS(=O)(=O)O)S(=O)(=O)c2ccccc2C(F)(F)F)c1 [Compound 28AC, (S)-(3-(4-(N-(1-(3-(3-methylpyridin-4-yl)phenyl)ethyl)-2-(trifluoromethyl)phenylsulfonamido)butyl)ureido)methanesulfonic acid] | < 100 | < 100
CCc1cnccc1-c1cccc([C@H](C)N(CCCCNC(=O)NCS(=O)(=O)O)S(=O)(=O)c2ccccc2C(F)(F)F)c1 [Compound 28AH, (S)-(3-(4-(N-(1-(3-(3-ethylpyridin-4-yl)phenyl)ethyl)-2-(trifluoromethyl)phenylsulfonamido)butyl)ureido)methanesulfonic acid] | < 100 | < 100
Cc1cnccc1-c1cccc(C(C)(C)N(CCCNC(=O)NCS(=O)(=O)O)S(=O)(=O)c2cccc(Cl)c2C)c1 [Compound 29, (3-(3-((3-Chloro-2-methyl-N-(2-(3-(3-methylpyridin-4-yl)phenyl)propan-2-yl)phenyl)sulfonamide)propyl)ureido) methanesulfonic acid] | < 100 | 100 to 999
Cc1cnccc1-c1cccc(C(C)(C)N(CCCNC(=O)NCCS(=O)(=O)O)S(=O)(=O)c2cccc(Cl)c2C)c1 [Compound 29AA, 2-(3-(3-((3-Chloro-2-methyl-N-(2-(3-(3-methylpyridin-4-yl)phenyl)propan-2-yl)phenyl)sulfonamide)propyl)ureido)ethane-1-sulfonic acid] | < 100 | < 100
Cc1cnccc1-c1cccc([C@H](C)N(CCCCNC(=O)CS(=O)(=O)O)S(=O)(=O)c2ccccc2C(F)(F)F)c1 [Compound 31AA, (S)-2-((4-(N-(1-(3-(3-methylpyridin-4-yl)phenyl)ethyl)-2-(trifluoromethyl)phenylsulfonamido)butyl)amino)-2-oxoethanesulfonic acid] | < 100 | < 100
Cc1cnccc1-c1cccc([C@H](C)N(CCCCNC(=O)[C@@H](N)CS(=O)(=O)O)S(=O)(=O)c2ccccc2C(F)(F)F)c1 [Compound 31AC, (R)-2-amino-3-((4-(N-((S)-1-(3-(3-methylpyridin-4-yl)phenyl)ethyl)-2-(trifluoromethyl)phenylsulfonamido)butyl)amino)-3-oxopropane-1-sulfonic acid] | < 100 | < 100
CCc1cnccc1-c1cccc([C@H](C)N(CCCC(=O)NCCNS(N)(=O)=O)S(=O)(=O)c2cccc(Cl)c2C)c1 [Compound 37AA, (S)-4-(3-chloro-N-(1-(3-(3-ethylpyridin-4-yl)phenyl)ethyl)-2-methylphenylsulfonamido)-N-(2-(sulfamoylamino)ethyl)butanamide] | < 100 | < 100
Cc1cnccc1-c1cccc([C@H](C)N(CCCC(=O)NCCNS(=O)(=O)NCC(=O)O)S(=O)(=O)c2cccc(Cl)c2C)c1 [Compound 38] | < 100 | < 100
CCc1cnccc1-c1cccc(C2CN(C(=O)CS(=O)(=O)O)CCN2S(=O)(=O)c2cccc(Cl)c2C)c1 (centres unmarked) [Compound 49, 2-(4-((3-Chloro-2-methylphenyl)sulfonyl)-3-(3-(3-ethylpyridin-4-yl)phenyl)piperazin-1-yl)-2-oxoethanesulfonic acid] | < 100 | < 100
